Source: ChEMBL document CHEMBL1156825, “Design, synthesis, and docking studies of novel benzimidazoles for the treatment of metabolic syndrome” (J Med Chem, 2010)
The source made the active and inactive calls. No cut-off for these calls is given here.

Key:
[1] = molecular target: T1, Type-1 angiotensin II receptor A (Rattus norvegicus, UniProt P25095); experiment: Displacement of [125I]SI-Ang2 from AT1 receptor in Sprague-Dawley rat liver membrane; assay type: cell membranes
T1 sequence (P25095 whole entry): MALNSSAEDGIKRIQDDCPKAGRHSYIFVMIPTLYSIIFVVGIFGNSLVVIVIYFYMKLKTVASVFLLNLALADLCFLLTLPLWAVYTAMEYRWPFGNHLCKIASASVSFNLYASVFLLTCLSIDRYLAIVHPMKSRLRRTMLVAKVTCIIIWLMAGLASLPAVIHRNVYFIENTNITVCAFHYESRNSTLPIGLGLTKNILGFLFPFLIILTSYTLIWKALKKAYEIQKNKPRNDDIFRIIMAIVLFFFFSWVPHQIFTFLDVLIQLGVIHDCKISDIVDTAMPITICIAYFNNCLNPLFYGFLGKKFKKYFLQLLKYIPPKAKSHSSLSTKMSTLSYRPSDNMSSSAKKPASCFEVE

[2] = molecular target: T2, Peroxisome proliferator-activated receptor gamma (Homo sapiens) (UniProt P37231); experiment: Agonist activity at human recombinant PPARgamma expressed in CV1 cells coexpressing GAL4 assessed as receptor transactivation at 10 uM by luciferase reporter gene assay relative to full agonist; assay type: functional, cell-based; conditions: CV-1
T2 sequence (whole entry): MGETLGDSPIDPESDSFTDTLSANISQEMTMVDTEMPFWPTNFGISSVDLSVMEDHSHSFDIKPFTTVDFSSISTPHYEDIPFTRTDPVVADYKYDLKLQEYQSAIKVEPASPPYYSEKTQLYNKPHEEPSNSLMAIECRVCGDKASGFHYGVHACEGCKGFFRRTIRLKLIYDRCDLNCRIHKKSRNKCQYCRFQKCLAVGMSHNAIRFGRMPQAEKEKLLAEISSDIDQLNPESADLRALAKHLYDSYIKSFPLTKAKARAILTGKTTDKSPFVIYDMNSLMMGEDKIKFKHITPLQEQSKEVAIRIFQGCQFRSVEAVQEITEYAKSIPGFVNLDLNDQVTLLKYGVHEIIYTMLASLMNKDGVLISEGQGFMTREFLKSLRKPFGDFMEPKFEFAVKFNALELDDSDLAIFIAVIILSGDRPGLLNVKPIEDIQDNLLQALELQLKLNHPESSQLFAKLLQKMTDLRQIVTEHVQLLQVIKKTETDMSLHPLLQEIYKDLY

[3] = molecular target: T3, Peroxisome proliferator-activated receptor alpha (Homo sapiens, UniProt Q07869); experiment: Agonist activity at PPARalpha assessed as receptor transactivation by reporter gene assay; assay type: functional
T3 sequence (Q07869 whole entry): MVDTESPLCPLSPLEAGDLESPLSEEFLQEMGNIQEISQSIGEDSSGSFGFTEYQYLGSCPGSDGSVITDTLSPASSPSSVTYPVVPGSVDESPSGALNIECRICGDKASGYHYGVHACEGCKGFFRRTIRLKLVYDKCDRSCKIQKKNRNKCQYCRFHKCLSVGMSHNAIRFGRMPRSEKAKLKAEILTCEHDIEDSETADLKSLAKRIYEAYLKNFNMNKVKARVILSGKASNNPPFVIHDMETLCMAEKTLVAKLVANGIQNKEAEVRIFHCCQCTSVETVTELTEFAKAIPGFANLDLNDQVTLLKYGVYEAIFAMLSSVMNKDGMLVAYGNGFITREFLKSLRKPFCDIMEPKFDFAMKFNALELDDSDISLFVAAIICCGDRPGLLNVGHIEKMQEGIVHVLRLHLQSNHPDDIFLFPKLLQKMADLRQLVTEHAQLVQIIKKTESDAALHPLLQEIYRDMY

[4] = molecular target: T4, Peroxisome proliferator-activated receptor alpha (Homo sapiens) (UniProt Q07869); experiment: Agonist activity at PPARalpha assessed as receptor transactivation by reporter gene assay relative to control; assay type: functional
T4 sequence (whole entry): T3 sequence (Q07869 whole entry)

[5] = molecular target: Peroxisome proliferator-activated receptor alpha (Homo sapiens) (UniProt Q07869); experiment: Agonist activity at human recombinant PPARalpha expressed in CV1 cells coexpressing GAL4 assessed as receptor transactivation at 10 µM by luciferase reporter gene assay relative to full agonist; conditions: CV-1

Ki [1] [nM] | Activity [2] | EC50 [3] [nM] | Activity [4] [%] | Activity [5] [%] | Compound
> 10000 |  |  |  |  | CCCc1nc2c(C)cccc2n1Cc1ccc(OCC(=O)OCC)cc1
13.4 | inactive |  |  |  | CCCc1nc2c(C)cc(-c3nc4ccccc4n3C)cc2n1Cc1ccc(CCc2nnn[nH]2)cc1
> 10000 | 2% |  |  |  | CCCc1nc2c(C)cccc2n1Cc1ccc(CCC(=O)OC)cc1
> 10000 | 21% |  |  |  | CCCc1nc2c(C)cccc2n1Cc1ccc(OC(C)(C)C(=O)OCC)cc1
> 10000 | 4% |  |  |  | CCCc1nc2c(C)cccc2n1Cc1ccc(/C=C/C(=O)OCC)cc1
1620 | inactive |  |  |  | CCCc1nc2c(C)cc(-c3nc4ccccc4n3C)cc2n1CCOc1ccc(CCc2nnn[nH]2)cc1
5060 | inactive |  |  |  | CCCc1nc2c(C)cccc2n1Cc1ccc(OCc2nnn[nH]2)cc1
2230 | 12% |  |  |  | CCCc1nc2c(C)cc(-c3nc4ccccc4n3C)cc2n1CCOc1ccc(CC(C)(Oc2ccccc2)C(=O)O)cc1 (centres undefined)
> 10000 | 69% | 300 | 93 | 93 | CCCc1nc2c(C)cccc2n1CCOc1ccc(CC(C)(Oc2ccccc2)C(=O)OCC)cc1 (centres undefined)
2840 | inactive |  |  |  | CCCc1nc2c(C)cccc2n1Cc1ccc(CCc2nnn[nH]2)cc1
 | 21.9% |  |  |  | CCCc1nc2c(C)cc(-c3nc4ccccc4n3C)cc2n1Cc1ccc(-c2ccccc2C(=O)O)cc1
> 10000 | 10% |  |  |  | CCCc1nc2c(C)cccc2n1CCOc1ccc(CC(C)(C)C(=O)OCC)cc1
2530 | 29% |  | 15 | 15 | CCCc1nc2c(C)cc(-c3nc4ccccc4n3C)cc2n1CCOc1ccc(CC(C)(Oc2ccccc2)C(=O)OCC)cc1 (centres undefined)
